{
  "source": "patent US4009181A",
  "about": "“Cyclopenta[b]indole-2-carboxylic acids and derivatives thereof” (Hoffmann-La Roche Inc., priority 1974, dated 1977)",
  "key": {"[1]": {"assay": "LD50 p.o. in mice (acute toxicity)", "type": "in vivo"}, "[2]": {"assay": "antipyretic activity: Brewer's yeast foot injection, foot and rectal temperatures", "type": "in vivo, male rats", "conditions": "rats; 200 mg/kg.", "procedure": "Control animals are given 1 cc/100 g. body weight of the vehicle. The test drug animals are given 200 mg/kg. of the drug in a concentration of 2 percent. Soluble and insoluble compounds are administered orally in aqueous suspended vehicle. One hour after administration of drug, these rats are injected with 0.1 ml. of a 2 percent suspension of Brewer's yeast beneath the plantar surface of the foot. Two hours after drug injections and 1 hour after the irritant, the temperatures of the inflammed foot, the normal foot and the rectum are recorded with the help of a thermocouple. Results are reported as degrees change from controls. The temperatures are averaged for the inflamed foot, the normal foot and the rectum. The averages for the treated groups are compared with the control averages and the results noted as degrees change from control."}, "[3]": {"assay": "analgesic activity: hot plate reaction time", "type": "in vivo, male mice", "conditions": "mice; dose ranging from 38 mg. to about 220 mg.", "procedure": "The method determines the reaction time of mice dropped onto a hot plate maintained at 55±0.5° C. Six groups of male mice (5 mice/group) weighing between 20-30 grams are utilized. The initial reaction time of these mice is determined once, and the reaction time of each group is then averaged. The mice are then administered the vehicle and/or the compound to be tested by the oral, intraperitoneal or subcutaneous route. The average reaction time of each group is determined again at 30, 60 and 90 minutes after compound administration and is compared to controls. Reaction time is recorded as percent changes from control. All groups are averaged before and after treatment. A combined reaction time average (recorded as percent change of reaction time threshhold from controls) for all three periods is plotted against dose on graph paper, and a curve is drawn. The ED 50 is read from this curve."}},
  "data": [
    {"molecule": "O=C(O)C1CCc2c([nH]c3ccc(Cl)cc23)C1", "note": "(stereo not drawn) [6-chloro-1,2,3,4-tetrahydrocarbazole-2-carboxylic acid]", "values": [
      {"measurement": "LD50", "setting": "[1]", "result": 1120, "unit": "mg"},
      {"measurement": "antipyretic activity", "setting": "[2]", "result": "antipyretic activity is observed"},
      {"measurement": "analgesic activity", "setting": "[3]", "result": "analgesic activity is observed"}
    ]}
  ]
}
